Measured values from patent publication US20020169175A1, “Pharmaceutically acceptable salts of heterocyclic compounds” (DR. REDDY'S LABORATORIES LTD., priority 2001, published 2002).
Counter-ions that a name gives are not always drawn.

What was measured:
Swiss albino mice = assay: Plasma triglyceride and total cholesterol lowering activity in Swiss albino mice and Guinea pigs; format: in vivo, mouse; conditions: oral, 6 days
Description: c) Plasma Triglyceride and Total Cholesterol Lowering Activity in Swiss Albino Mice and Guinea Pigs
Male Swiss albino mice (SAM) and male Guinea pigs were obtained from NIN and housed in DRF animal house. All these animals were maintained under 12 hour light and dark cycle at 25±1° C. Animals were given standard laboratory chow (NIN Hyderabad, India) and water, ad libitum. SAM of 20-25 g body weight range and Guinea pigs of 500-700 g body weight range were used (Oliver, P., Plancke, M. O., Marzin, D., Clavey, V., Sauzieres, J and Fruchart, J. C. Effects of fenofibrate, gemfibrozil and nicotinic acid on plasma lipoprotein levels in normal and hyperlipidemic mice. Atherosclerosis. 1988. 70: 107-114).
The test compounds were administered orally to Swiss albino mice at 0.3 to 30 mg/kg/day dose for 6 days. Control mice were treated with vehicle (0.25% Carboxymethylcellulose; dose 10 ml/kg). The test compounds were administered orally to Guinea pigs at 0.3 to 30 mg/kg/day dose for 6 days. Control animals were treated with vehicle (0.25% Carboxymethylcellulose; dose 5 ml/kg).
The blood samples were collected in fed state 1 hour after drug administration on 0 and 6 day of treatment. The blood was collected from the retro-orbital sinus through heparinised capillary in EDTA containing tubes. After centrifugation, plasma sample was separated for triglyceride and total cholesterol (Wieland, O. Methods of Enzymatic analysis. Bergermeyer, H. O., Ed., 1963. 211-214; Trinder, P. Ann. Clin. Biochem. 1969. 6: 24-27). Measurement of plasma triglyceride, total cholesterol and HDL were done using commercial kits (Dr. Reddy's Diagnostic Division, Hyderabad, India).
1. Percent reduction in Blood sugar/triglycerides/total cholesterol were calculated according to the formula: [formula]

[1] = Single dose oral pharmacokinetic studies in male Wistar rats; format: in vivo, rat; conditions: fasted, suspension in 0.25% sodium CMC
Description: Single Dose Oral Pharmacokinetic Studies
Male Wistar rats (220-250 gm) were used in the experiments. The animals were maintained under standard laboratory conditions and had free access to feed and water ad libitum. Before experimentation animals were fasted overnight (˜15 h) during which they had free access to water ad libitum.
An amount equivalent to 30 mg of drug was weighed accurately and transferred into a clean mortar and triturated to obtain a fine powder. To this 0.5 ml of 0.25% sodium carboxy methyl cellulose (sodium CMC) was added to obtain a paste. To the obtained paste remaining 2.5 ml of sodium CMC was added to make up the volume to 3 ml. Based on the animal weight appropriate volume (body weight×3) of the prepared suspension was administered through oral gavage.
After dosing, at designated time points (0.5, 1, 2, 3, 5, 8, 12 and 24 h) 200 μl of blood was collected from retro orbital plexus into 0.5 ml eppendorff tubes containing EDTA (10 μl of 200 mg/ml solution in Milli Q water). Blood was centrifuged at 12,800 rpm for 5 min and obtained plasma and stored at −20° C. till further analysis.
100μl plasma was transferred into a clean and dry centrifuge tube. To this internal standard (10 μl of 100 μg/ml) was added and extracted with 2 ml of extraction recovery solvent. The contents were vortexed for 2 min, followed by centrifugation for 10 min at 2800 rpm. Clear organic layer (2×0.75 ml) was separated and dried under nitrogen gas at 50° C. The residue was reconstituted with 150 μl of mobile phase and vortexed for 20 sec, from this 50 μl was injected onto HPLC column.
Pharmacokinetic parameters were calculated by non-compartmental model analysis. The peak plasma concentration (Cmax) and the corresponding time (Tmax)were directly obtained from the raw data. The area under the plasma concentration versus time curve up to the last quantifiable time point, AUC(0−t) was obtained by the linear and log-linear trapezoidal summation. The AUC(0−t) extrapolated to infinity (i.e., AUC(0−∞)) by adding the quotient of Clast/Kel, where Clast represents the last measurable time concentration and Kel represents the apparent terminal rate constant. Kel was calculated by the linear regression of the log-transformed concentrations of the drug in the terminal phase. The half-life of the terminal elimination phase was obtained using the relationship t½=0.693/Kel.

hPPARα = target: T1, hPPARα (Homo sapiens, UniProt Q07869); assay: Determination of hPPARα activity (GAL4 fusion luciferase reporter in transfected HEK-293 cells); format: cell-based; conditions: compound concentration 50 μM
T1 construct: expressed in transfected cells; host or cells: HEK-293
T1 sequence (Q07869 239-466 limits assumed): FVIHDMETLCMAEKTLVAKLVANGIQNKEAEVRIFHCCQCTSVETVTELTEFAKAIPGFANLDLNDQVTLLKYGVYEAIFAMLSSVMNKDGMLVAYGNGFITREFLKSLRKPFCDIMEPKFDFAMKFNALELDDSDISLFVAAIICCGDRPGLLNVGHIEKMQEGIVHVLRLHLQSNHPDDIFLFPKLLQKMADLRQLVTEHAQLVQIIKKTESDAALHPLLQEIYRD
Description: a) Determination of hPPARα Activity
Ligand binding domain of hPPARα was fused to DNA binding domain of Yeast transcription factor GAL4 in eucaryotic expression vector. Using superfect (Qiagen, Germany) as transfecting reagent HEK-293 cells were transfected with this plasmid and a reporter plasmid harboring the luciferase gene driven by a GAL4 specific promoter. Compound was added at different concentrations after 42 hrs of transfection and incubated overnight. Luciferase activity as a function of compound binding/activation capacity of PPARα was measured using Packard Luclite kit (Packard, USA) in Top Count (Ivan Sadowski, Brendan Bell, Peter Broag and Melvyn Hollis. Gene. 1992. 118: 137-141; Superfect Transfection Reagent Handbook. February 1997. Qiagen, Germany).

hPPARγ1 = target: T2, hPPARγ1 (Homo sapiens, UniProt P37231); assay: Determination of hPPARγ activity (GAL4 fusion luciferase reporter in transfected HEK-293 cells); format: cell-based; conditions: compound concentration 1 μM
T2 construct: expressed in transfected cells; host or cells: HEK-293
T2 sequence (P37231 238-503 limits assumed): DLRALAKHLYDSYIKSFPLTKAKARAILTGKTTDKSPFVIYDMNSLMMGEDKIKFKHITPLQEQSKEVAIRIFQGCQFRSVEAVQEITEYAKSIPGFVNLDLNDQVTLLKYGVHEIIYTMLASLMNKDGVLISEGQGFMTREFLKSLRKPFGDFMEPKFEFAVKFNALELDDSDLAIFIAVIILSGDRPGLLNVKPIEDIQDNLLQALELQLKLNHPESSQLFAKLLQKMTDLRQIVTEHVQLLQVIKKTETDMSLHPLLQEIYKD
Description: b) Determination of hPPARγ Activity
Ligand binding domain of hPPARγ1 was fused to DNA binding domain of Yeast transcription factor GAL4 in eucaryotic expression vector. Using lipofectamine (Gibco BRL, USA) as transfecting reagent HEK-293 cells were transfected with this plasmid and a reporter plasmid harboring the luciferase gene driven by a GAL4 specific promoter. Compound was added at 1 μM concentration after 48 hrs of transfection and incubated overnight. Luciferase activity as a function of drug binding/activation capacity of PPARγ1 was measured using Packard Luclite kit (Packard, USA) in Packard Top Count (Ivan Sadowski, Brendan Bell, Peter Broag and Melvyn Hollis. Gene. 1992. 118: 137-141; Guide to Eukaryotic Transfections with Cationic Lipid Reagents. Life Technologies, GIBCO BRL, USA).

Row | Compound | Triglyceride Lowering (%) (Swiss albino mice; dose 3 mg/kg) | PPARα (hPPARα) | PPARγ (hPPARγ1) | also measured
1 | CCCc1nn(C)c2c(=O)n(CCOc3ccc(CC(OCC)C(=O)[O-])cc3)c(CC)nc12.CCCc1nn(C)c2c(=O)n(CCOc3ccc(CC(OCC)C(=O)[O-])cc3)c(CC)nc12.[Mg+2] (single isomer, unassigned; (-)) [Example 31, (−)-3-[4-[2-(1-Methyl-5-ethyl-7-oxo-3-propyl-6,7-dihydro-1H-pyrazolo[4,3-d]pyrimidin-6-yl)ethoxy]phenyl]-2-ethoxypropionic acid magnesium salt] | 84 |  |  | AUC (0-∞) [1]: 65930 ng·h/mL; AUC(0-t) [1]: 64700 ng·h/mL; Cmax [1]: 19150 ng/mL; Kel [1]: 0.34 h⁻¹; Tmax [1]: 2.75 h; t½ [1]: 2.24 h
2 | CCO[C@@H](Cc1ccc(OCCn2c(CC)nc3ccccc3c2=O)cc1)C(=O)O [Example 1, (−)-3-[4-[2-(2-Ethyl-4-oxo-3,4-dihydroquinazolin-3-yl)ethoxy]phenyl]-2-ethoxypropanoic acid phenyl glycinol salt] | 87 |  |  | 
3 | CCO[C@@H](Cc1ccc(OCCn2c(CC)nc3ccccc3c2=O)cc1)C(=O)O [Example 3, (−)-3-[4-[2-(2-Ethyl-4-oxo-3,4-dihydroquinazolin-3-yl)ethoxy]phenyl]-2-ethoxypropanoic acid dicyclohexylamine salt] | 81 |  |  | 
4 | CCO[C@@H](Cc1ccc(OCCn2c(N=[N+]=[N-])nc3ccccc3c2=O)cc1)C(=O)O [Example 12, (−)-3-[4-[2-(2-Azido-4-oxo-3,4-dihydroquinazolin-3-yl)ethoxy]phenyl]-2-ethoxypropanoic acid magnesium salt] |  |  |  | Triglyceride Lowering (%) (Swiss albino mice; dose 0.3 mg/kg): 37%
5 | CCCc1nn(C)c2c(=O)n(CCOc3ccc(CC(OCC)C(=O)[O-])cc3)c(C)nc12.CCCc1nn(C)c2c(=O)n(CCOc3ccc(CC(OCC)C(=O)[O-])cc3)c(C)nc12.[Mg+2] (stereo not drawn) [Example 16, 3-[4-[2-(1,5-Dimethyl-7-oxo-3-propyl-6,7-dihydro-1H-pyrazolo[4,3-d]pyrimidin-6-yl)ethoxy]phenyl]-2-ethoxypropionic acid magnesium salt] |  | 3.4 | 13.5 | 
6 | CCCc1nn(C)c2c(=O)n(CCOc3ccc(C[C@H](OCC)C(=O)[O-])cc3)c(C)nc12.[Na+] [Example 20, 3-[4-[2-(1,5-Dimethyl-7-oxo-3-propyl-6,7-dihydro-1H-pyrazolo[4,3-d]pyrimidin-6-yl)ethoxy]phenyl]-2-ethoxypropionic acid sodium salt] |  | 3.5 | 13.0 | 
7 | CCCc1nn(C)c2c(=O)n(CCOc3ccc(C[C@H](OCC)C(=O)O)cc3)c(C)nc12 [Example 23, 3-[4-[2-(1,5-Dimethyl-7-oxo-3-propyl-6,7-dihydro-1H-pyrazolo[4,3-d]pyrimidin-6-yl)ethoxy]phenyl]-2-ethoxypropionic acid S-(+)-phenylglycinol salt] |  | 3.4 | 11.5 | 
8 | CCCc1nn(C)c2c(=O)n(CCOc3ccc(C[C@H](OCC)C(=O)O)cc3)c(CC)nc12 [Example 36, (−)-3-[4-[2-(1-Methyl-5-ethyl-7-oxo-3-propyl-6,7-dihydro-1H-pyrazolo[4,3-d]pyrimidin-6-yl)ethoxy]phenyl]-2-ethoxypropionic acid arginine salt] |  |  | 11.4 | 
9 | CCCc1nn(C)c2c(=O)n(CCOc3ccc(C[C@H](OCC)C(=O)O)cc3)c(CC)nc12 [Example 38, (−)-3-[4-[2-(1-Methyl-5-ethyl-7-oxo-3-propyl-6,7-dihydro-1H-pyrazolo[4,3-d]pyrimidin-6-yl)ethoxy]phenyl]-2-ethoxypropionic acid S-(+)-phenylglycinol salt] |  | 3.3 | 12.0 | 
10 | CCCc1nn(C)c2c(=O)n(CCOc3ccc(C[C@H](OCC)C(=O)O)cc3)c(CC)nc12 [Example 41, (−)-3-[4-[2-(1-Methyl-5-ethyl-7-oxo-3-propyl-6,7-dihydro-1H-pyrazolo[4,3-d]pyrimidin-6-yl)ethoxy]phenyl]-2-ethoxypropionic acid dicyclohexylamine salt] |  | 3.1 | 13.0 | 
11 | CCCc1nn(C)c2c(=O)n(CCOc3ccc(C[C@H](OCC)C(=O)O)cc3)c(CC)nc12 [Example 44, (−)-3-[4-[2-(1-Methyl-5-ethyl-7-oxo-3-propyl-6,7-dihydro-1H-pyrazolo[4,3-d]pyrimidin-6-yl)ethoxy]phenyl]-2-ethoxypropionic acid metformin salt] | 80 | 2.5 |  | 
12 | CCCc1nn(C)c2c(=O)n(CCOc3ccc(C[C@H](OCC)C(=O)O)cc3)c(CC)nc12 [Example 45, (−)-3-[4-[2-(1-Methyl-5-ethyl-7-oxo-3-propyl-6,7-dihydro-1H-pyrazolo[4,3-d]pyrimidin-6-yl)ethoxy]phenyl]-2-ethoxypropionic acid Lysine salt] | 81 |  |  | AUC (0-∞) [1]: 101290 ng·h/mL; AUC(0-t) [1]: 99330 ng·h/mL; Cmax [1]: 24220 ng/mL; Kel [1]: 0.42 h⁻¹; Tmax [1]: 2.38 h; t½ [1]: 1.72 h
